# Laboratory results reported in US20240317735A1, “HYDROISOQUINOLINE OR HYDRONAPHTHYRIDINE COMPOUNDS FOR THE TREATMENT OF AUTOIMMUNE DISEASE” (Hoffmann-La Roche Inc., priority 2020, published 2024).
# Test system: embryonic stem cells (D3) and 3T3 fibroblasts
# Assay: mouse Embryonic Stem Cell Test (mEST)
# Assay type: cell-based
# Settings: <0.5 negative, >0.6 positive, 0.5-0.6 borderline
# Text: The in vitro mouse Embryonic Stem Cell Test (mEST) assay is an implemented routine assay at Roche. The original EST was developed by Horst Spielmann and his group in 1997 as an in vitro model for the screening of embryotoxicity, based on a blastocyst-derived permanent embryonic mouse ESC (mESC) D3 cell line derived from mouse 129 strains and was validated by European Centre for the Validation of Alternative Methods (ECVAM).
# We further optimized and modified the approach allowing for the application of the assay to pharmaceutical compounds.
# The cytotoxicity (inhibition of growth) of 3T3 fibroblasts, which represents differentiated cells and the cytotoxicity of undifferentiated embryonic stem cells (D3) after 10 days of substance treatment serve as two assay endpoints. This is determined by the use of dehydrogenase enzymes, which are present in the intact mitochondria of living cells to convert yellow soluble substrate 3-(4,5-dimethythiazol-2-yl)-2,5-diphenyl tetrazolium bromide (MTT) into a dark blue insoluble formazan product, which gets sequestered within the cells and is detected quantitatively using an absorbance reader (570 nm) after solubilizing the cell membrane.
# The third endpoint is the inhibition of differentiation of ES cells into myocards which are cardiac muscle cells after 10 days of treatment. The beating of this cells is evaluated by microscopy.
# • 1) Cell passage with trypsin 0.05% EDTA for D3 cells. • 2) Assembly of the cell suspension: dilute cells to 2.5×10^4/mL with 18 ml media (for each test) in 50 mL Falcon tubes. • 3) Prepare the petri dishes (PD): add 5-10 mL sterile Dulbecco's PBS (Gibco) into each dish bottom, distribute over the whole dish. • 4) Dilution series of test compound in Eppendorf tubes: add 5 μL of compound (1:400 dilution) and 5 μL control solution (DMSO) to 2 mL cell suspension, vortex. • 5) Preparation of hanging drops in petridishes: vortex tube, aspirate suspension with automatic pipette and multi-dispense 20 μL drops onto the lid of the petri dish, add 2 mL in total in a concentric circle of drops (˜100 drops); quickly but smoothly turn the cover and put on PD; incubate for 3 days at 37° C./5% CO2.
# • 1) Dilution series of compound in 14 mL PP tubes • 6 tubes for the concentrations; fill with 5 mL assay media • 1 tube for DMSO (solvent control) fill with 5 mL assay media • 2) Dilution series of compound in Eppendorf tubes • Add 12.5 μL of compound (1:400 dilution) and 12.5 μL control solution, vortex • 3) Transfer of embryoid bodies in a bacterial Petri dish • Carefully turn PD lid, check the drops for fungus contamination • Rinse several times the drops down with 5 mL of the prepared solution • Transfer in a bacterial petri dish Incubate for 3 days at 37° C./5% CO2 […]
row,SMILES,Predictive scores D12_3
1,"C[C@H]1CN(c2ccnc3c2cnn3C)Cc2ccc(OC[C@H]3CNCCN3)cc21 [Example 18, (4R)-4-methyl-2-(1-methylpyrazolo[3,4-b]pyridin-4-yl)-6-[[(2R)-piperazin-2-yl]methoxy]-3,4-dihydro-1H-isoquinoline]",0.11
2,"C[C@H]1CN(c2ccnc3c2cnn3C)Cc2ccc(OC[C@@H]3CNCCN3)cc21 [Example 19, (4R)-4-methyl-2-(1-methylpyrazolo[3,4-b]pyridin-4-yl)-6-[[(2S)-piperazin-2-yl]methoxy]-3,4-dihydro-1H-isoquinoline]",0.05
3,"CO[C@@H]1CN(c2ccc3c(c2)[C@@H](C)CN(c2ccnc4c2cnn4C)C3)C[C@H]1N [Example 20, (3R,4R)-4-methoxy-1-[(4R)-4-methyl-2-(1-methylpyrazolo[3,4-b]pyridin-4-yl)-3,4-dihydro-1H-isoquinolin-6-yl]pyrrolidin-3-amine]",0.49
4,"CO[C@@H]1CN(c2ccc3c(n2)[C@@H](C)CN(c2cc(C)nc4c2cnn4C)C3)C[C@H]1N [Example 63, (3R,4R)-4-methoxy-1-[(8S)-6-(1,6-dimethylpyrazolo[3,4-b]pyridin-4-yl)-8-methyl-7,8-dihydro-5H-1,6-naphthyridin-2-yl]pyrrolidin-3-amine]",0.43
